This is an account of results in patent US6392055B1, “Synthesis and biological evaluation of analogs of the antimitotic marine natural product curacin A” (The University of Pittsburgh, priority 2000, dated 2002).

Like-named read-outs stand apart in the source and are kept apart here. A value given as a limit tells only on which side of the number the result lay.

Assay [1] deals with tubulin (colchicine site). Briefly: Inhibition of [3H]colchicine binding to tubulin. To be noted: for IC50: 5 μM [3H]colchicine, 1 μM tubulin; for Percent Colchicine Binding Inhibition (CBI), 1 μM: 1 μM compound; for Percent Colchicine Binding Inhibition (CBI), 5 μM: 5 μM compound; for Percent Colchicine Binding Inhibition (CBI), 50 μM: 50 μM compound. Also on record: species or system bovine. The procedure:
Assays to determine whether 15mix-17mix inhibited binding of [^3H]colchicine to tubulin at both 30° C. and 37° C. were performed. This was accomplished using methods described previously. Kang, G.-J.; Getahun, Z.; Muzaffar, A.; Brossi, A.; Hamel, E. J. Biol. Chem. 1990, 265, 10255; Verdier-Pinard, P.; Lai, J.-Y.; Yoo, H.-D.; Yu, J.; Marquez, B.; Nagle, D. G.; Nambu, M.; White, J. D.; Falck, J. R.; Gerwick, W. H.; Day, B. W.; Hamel, E. Mol. Pharmacol. 1998, 53, 62. Briefly, 5 μM [^3H]colchicine (2.3 TBq/mmol), drug (1, 5, 10, 50, or 250 μM), or vehicle (DMSO, 5% v/v) were incubated at 30° C. for 15 minutes or at 37° C. for 10 minutes with 1 μM tubulin in the presence of 1 M monosodium glutamate, 0.1 M glucose-1-phosphate, 1 mM MgCl2, 1 mM GTP, and 0.5 mg/mL bovine serum albumin. The solutions were filtered through two stacks of DEAE-cellulose filters and the radioactivity in the filtrate was determined by scintillation spectrometry. Each series of determinations included positive controls of 1, 5, and/or 50 μM curacin A.

The subject of assay [2] is isolated bovine brain tubulin. Briefly: Inhibition of GTP/glutamate-induced tubulin polymerization (turbidimetric, 30° C.). In kind it is biochemical. The note with it: for IC50: read-out: 50% Tubulin Polymerization Inhibition Concentration (TPI) IC50, 30° C., 10 μM tubulin; for Percent Tubulin Polymerization Inhibition (TPI), 5 μM: 5 μM compound.
The subject of a further assay is MDA-MB231 cells. Briefly: Growth inhibition of breast carcinoma cells (MTS). In kind it is cell-based, human.
For a further assay, the system named is PC-3 cells. Briefly: Growth inhibition of prostate carcinoma cells (MTS). In kind it is cell-based, human.
A further assay has as its system 2008 cells. Briefly: Growth inhibition of ovarian carcinoma cells (MTS). In kind it is cell-based, human.
Setting [3] is: incubation at 30° C. for 15 minutes, read-out: 50% Colchicine Binding Inhibitory Concentration (CBI), 30° C.
Setting [4] is: incubation at 37° C. for 10 minutes, read-out: 50% Colchicine Binding Inhibitory Concentration (CBI), 37° C.
The mark [5] stands for this setting: Homo sapiens, MDA-MB-231, 48 h, read-out: GI50 MDA-MB231 (48 h).
[6] abbreviates: Homo sapiens, PC-3, 48 h, read-out: GI50 PC-3 (48 h).
Where [7] appears, read: Homo sapiens, Ovarian carcinoma cell, 48 h, read-out: GI50 2008 (48 h).
The mark [8] stands for this setting: 96 h, Table II prints no unit, read-out: GI50 MDA 96 h.
[9] abbreviates: read-out: GI50 MDA 48 h, 48 h, Table II prints no unit.
Setting [10] is: 96 h, Table II prints no unit, read-out: GI50 PC3 96 h.
The mark [11] stands for this setting: read-out: GI50 PC3 48 h, 48 h, Table II prints no unit.
[12] abbreviates: 96 h, Table II prints no unit, read-out: GI50 2008 96 h.
[13] abbreviates: read-out: GI50 2008 48 h, 48 h, Table II prints no unit.

For `COc1cc(C=CCCC=CC=C(C)CCC(O)c2ccco2)cc(OC)c1OC` (stereo not shown) [Compound 17a, (4E,1E,10Z)-11-(3,4,5-Trimethoxyphenyl)-4-methyl-1-furan-2-ylundeca-4,6,10-trien-1-ol], the IC50 in assay [1] (setting [3]) turned out to be 32 ± 4 µM; in assay [1] (setting [4]), 9 ± 6 µM; in assay [2], 0.9 µM. Also, the 50% growth inhibitory concentration (GI50) in the assay on MDA-MB231 cells (setting [5]) was determined as 0.69 ± 0.1 µM; with PC-3 cells (setting [6]), 8 ± 4 µM; with 2008 cells (setting [7]), 2.7 ± 1 µM.
With `COc1ccccc1C(O)CCC(C)=CC=CCCC=Cc1cc(OC)c(OC)c(OC)c1` (stereo not shown) [Compound 17d, (4E,6E,10Z)-11-(3,4,5-Trimethoxyphenyl)-4-methyl-1-(2-methoxy-phenyl)-2-ylundeca-4,6,10-trien-1-ol], the figures for the IC50 in assay [1] (setting [3]), in assay [1] (setting [4]) and in assay [2] were 9 ± 5 µM, 9 ± 4 µM and 1.2 µM, respectively. The GI50 with MDA-MB231 cells (setting [5]) came to 0.34 ± 0.03 µM; with PC-3 cells (setting [6]), 0.62 ± 0.2 µM; with 2008 cells (setting [7]), 0.33 ± 0.02 µM.
As for `COc1ccc(OC)c(C(O)CCC(C)=CC=CCCC=Cc2cc(OC)c(OC)c(OC)c2)c1` (stereo not shown) [Compound 17f, (4E,6E,10Z)-11-(3,4,5-Trimethoxyphenyl)-4-methyl-1-(2,5-dimethoxy-phenyl)-2-ylundeca-4,6,10-trien-1-ol], the IC50 in assay [1] (setting [3]), in assay [1] (setting [4]) and in assay [2] was > 50 µM each time. Further, the GI50 in the assay with MDA-MB231 cells (setting [5]) was 9.7 ± 1 µM; in the assay with PC-3 cells (setting [6]) it was > 50 µM; in the assay with 2008 cells (setting [7]), 22 ± 5 µM.
Regarding `COc1ccc(/C=C\CC/C=C/C=C(\C)CCC(O)c2ccco2)c(OC)c1` (stereo not shown) [Compound 19AR1], the “Percent Colchicine Binding Inhibition (CBI), 1 μM” value in assay [1] was −4.6 ± 8.5%. For the same molecule, in assay [1], the “Percent Colchicine Binding Inhibition (CBI), 5 μM” value is recorded as −2.2 ± 8.2%. Moreover, in assay [1], the “Percent Colchicine Binding Inhibition (CBI), 50 μM” value is given as 13.2 ± 12.7%. In addition, in assay [2], the “Percent Tubulin Polymerization Inhibition (TPI), 5 μM” value is listed as 81.7%. Also, the GI50 in the assay on MDA-MB231 cells (setting [8]) was 3.26 ± 6.13 µM; with MDA-MB231 cells (setting [9]), 26.8 ± 0.9 µM; with PC-3 cells (setting [10]), > 50 µM; in the assay on PC-3 cells (setting [11]), > 50 µM; in the assay on 2008 cells (setting [12]), 19.1 ± 3.1 µM; in the assay with 2008 cells (setting [13]), 20.2 ± 2 µM.
Take `COc1ccc(/C=C\CC/C=C/C=C(\C)CCC(O)c2cccs2)c(OC)c1` (stereo not shown) [Compound 19AR2]: in assay [1], the “Percent Colchicine Binding Inhibition (CBI), 1 μM” value is reported as −0.7 ± 7.5%. In assay [1], the “Percent Colchicine Binding Inhibition (CBI), 5 μM” value is −2.7 ± 6.5%. For the same molecule, the “Percent Colchicine Binding Inhibition (CBI), 50 μM” value in assay [1] is −31.7 ± 7.8 %. For the same molecule, in assay [2], the “Percent Tubulin Polymerization Inhibition (TPI), 5 μM” value is 51.8%. Besides, the 50% growth inhibitory concentration (GI50) in the assay on MDA-MB231 cells (setting [8]) is 7.18 ± 4.67 µM; with MDA-MB231 cells (setting [9]), 24 ± 1.2 µM; in the assay on PC-3 cells (setting [10]), 37.3 ± 6.5 µM; in the assay on PC-3 cells (setting [11]) it was > 50 µM; with 2008 cells (setting [12]) it was 25.9 ± 2.1 µM; in the assay on 2008 cells (setting [13]), 23.8 ± 1.1 µM.
Take `COc1ccc(/C=C\CC/C=C/C=C(\C)CCC(O)c2cc3ccccc3o2)c(OC)c1` (stereo not shown) [Compound 19AR3]: the “Percent Colchicine Binding Inhibition (CBI), 1 μM” value in assay [1] came to 0.7 ± 16.2%. Also, in assay [1], the “Percent Colchicine Binding Inhibition (CBI), 5 μM” value is on record as −50.0 ± 12.7 %. In assay [1], the “Percent Colchicine Binding Inhibition (CBI), 50 μM” value is reported as −29.0 ± 9.2 %. Besides, the “Percent Tubulin Polymerization Inhibition (TPI), 5 μM” value in assay [2] came to 60.4%. The concentration for 50% growth inhibition (GI50) is 6.43 ± 7.42 µM with MDA-MB231 cells (setting [8]); 42.1 ± 1.4 µM in the assay with MDA-MB231 cells (setting [9]); 49.1 ± 8.9 µM with PC-3 cells (setting [10]); > 50 µM in the assay with PC-3 cells (setting [11]); 17.7 ± 2.7 µM with 2008 cells (setting [12]); 12.2 ± 2.7 µM with 2008 cells (setting [13]).
Regarding `COc1ccc(/C=C\CC/C=C/C=C(\C)CCC(O)c2cc3ccccc3s2)c(OC)c1` (stereo not shown) [Compound 19AR4], the “Percent Colchicine Binding Inhibition (CBI), 1 μM” value in assay [1] turned out to be 1.4 ± 18.5%. For the same molecule, the “Percent Colchicine Binding Inhibition (CBI), 5 μM” value in assay [1] was −41.0 ± 17.8 %. Also, the “Percent Colchicine Binding Inhibition (CBI), 50 μM” value in assay [1] was −26.4 ± 14.7 %. The “Percent Tubulin Polymerization Inhibition (TPI), 5 μM” value in assay [2] was 60.5%. The 50% growth inhibitory concentration (GI50) in the assay on MDA-MB231 cells (setting [8]) was 18.6 ± 3 µM; with MDA-MB231 cells (setting [9]), > 50 µM; with PC-3 cells (setting [10]), > 50 µM; in the assay on PC-3 cells (setting [11]), > 50 µM; in the assay with 2008 cells (setting [12]) it was 26.9 ± 3 µM; with 2008 cells (setting [13]) it was 29.8 ± 1.4 µM.
